Reference: ChEMBL document CHEMBL4823315 (Bioorg Med Chem Lett, 2021)

How the values were obtained:
[1] = target: T1, Cytochrome P450 1A2 (Homo sapiens, UniProt P05177); experiment: Inhibition of CYP1A2 (unknown origin); type: ADME
T1 sequence (P05177 whole entry): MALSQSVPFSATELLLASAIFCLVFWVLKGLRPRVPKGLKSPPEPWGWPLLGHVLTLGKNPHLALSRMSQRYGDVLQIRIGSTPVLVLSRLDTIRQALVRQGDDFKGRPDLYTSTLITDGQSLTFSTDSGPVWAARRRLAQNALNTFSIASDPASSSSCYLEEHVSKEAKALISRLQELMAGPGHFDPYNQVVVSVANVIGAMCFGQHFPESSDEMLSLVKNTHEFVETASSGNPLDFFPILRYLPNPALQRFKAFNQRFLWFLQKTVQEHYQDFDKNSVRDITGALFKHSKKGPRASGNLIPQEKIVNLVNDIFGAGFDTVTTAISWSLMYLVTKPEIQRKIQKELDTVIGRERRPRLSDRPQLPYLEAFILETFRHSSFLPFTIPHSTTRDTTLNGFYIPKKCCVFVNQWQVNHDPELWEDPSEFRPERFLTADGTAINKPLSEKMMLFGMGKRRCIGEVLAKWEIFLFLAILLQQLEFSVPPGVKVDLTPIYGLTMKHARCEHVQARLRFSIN

[2] = Protein binding in human plasma assessed as unbound fraction; type: ADME, cell-free
[3] = target: T2, Cytochrome P450 2C8 (Homo sapiens, UniProt P10632); experiment: Inhibition of CYP2C8 (unknown origin); type: ADME
T2 sequence (P10632 whole entry): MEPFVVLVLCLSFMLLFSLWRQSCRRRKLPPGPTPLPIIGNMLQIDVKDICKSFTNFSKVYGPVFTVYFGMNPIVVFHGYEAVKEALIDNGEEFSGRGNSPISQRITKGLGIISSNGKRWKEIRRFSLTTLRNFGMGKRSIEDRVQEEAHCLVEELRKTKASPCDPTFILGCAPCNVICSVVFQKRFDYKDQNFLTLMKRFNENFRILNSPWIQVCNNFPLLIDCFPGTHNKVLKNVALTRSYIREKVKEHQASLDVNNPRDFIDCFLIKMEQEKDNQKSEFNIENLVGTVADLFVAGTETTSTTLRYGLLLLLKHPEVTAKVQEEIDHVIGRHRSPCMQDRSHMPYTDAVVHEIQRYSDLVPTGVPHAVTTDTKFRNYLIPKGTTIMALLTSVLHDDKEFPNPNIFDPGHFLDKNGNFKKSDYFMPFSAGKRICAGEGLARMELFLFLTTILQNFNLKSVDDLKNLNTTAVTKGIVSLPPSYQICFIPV

[4] = target: Cytochrome P450 2C9 (Homo sapiens, UniProt P11712); experiment: Inhibition of CYP2C9 (unknown origin); type: ADME
Cytochrome P450 2C9, sequence (P11712 whole entry): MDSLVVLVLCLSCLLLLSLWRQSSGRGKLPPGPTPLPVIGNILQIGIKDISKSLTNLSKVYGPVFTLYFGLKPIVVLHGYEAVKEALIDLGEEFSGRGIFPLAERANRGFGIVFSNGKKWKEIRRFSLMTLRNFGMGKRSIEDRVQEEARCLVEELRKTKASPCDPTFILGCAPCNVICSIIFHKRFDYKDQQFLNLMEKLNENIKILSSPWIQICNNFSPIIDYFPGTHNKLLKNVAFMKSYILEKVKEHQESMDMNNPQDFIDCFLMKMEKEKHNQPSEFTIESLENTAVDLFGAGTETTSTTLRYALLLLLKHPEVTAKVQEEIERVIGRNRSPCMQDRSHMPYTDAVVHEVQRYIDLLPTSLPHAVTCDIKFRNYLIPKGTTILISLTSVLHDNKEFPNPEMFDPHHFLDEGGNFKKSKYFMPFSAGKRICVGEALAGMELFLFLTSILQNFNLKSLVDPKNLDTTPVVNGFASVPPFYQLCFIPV

[5] = Half life in CD-1 mouse at 5 mg/kg, po or 5 mg/kg, iv; type: ADME, organism-based; conditions: in vivo
[6] = Volume of distribution in CD-1 mouse at 5 mg/kg, po or 5 […], iv; type: ADME, organism-based; conditions: in vivo
[7] = Oral bioavailability in cynomolgus monkey at 0.5 mg/kg; type: ADME, organism-based, Macaca fascicularis; conditions: in vivo
[8] = AUC in Beagle dog at 0.5 mg/kg, po; type: ADME, organism-based, Canis lupus familiaris; parameters: dose 0.5 mg/kg; conditions: in vivo
[9] = Cmax in Beagle dog at 0.5 mg/kg, po; type: ADME, organism-based, Canis lupus familiaris; parameters: route oral, dose 0.5 mg/kg; conditions: in vivo
[10] = test system: MDA-MB-436; experiment: Antitumor activity against human MDA-MB-436 cells xenografted in mouse assessed as tumor growth inhibition at 25 mg/kg, po qd and measured for 28 days; type: functional; conditions: MDA-MB-436, po, 672 h, time 28 day, read-out: TGI
[11] = Toxicity in po dosed mouse xenografted with human MDA-MB-436 cells administered daily; type: organism-based; conditions: in vivo

Structure (SMILES): NC(=O)c1c(N)ncnc1N1CCC(c2nc(-c3ccc(F)c(C(F)(F)F)c3)cn2CCN2CCC2)CC1
- IC50 [1]: > 20 µM
- fraction unbound [2]: 0.21
- IC50 [3]: > 20 µM
- IC50 [4]: > 20 µM
- half-life [5]: 9.3 h
- Vd [6]: 19.3 L/kg
- bioavailability [7]: 23%
- AUC [8]: 2370 ng·h/mL
- Cmax [9]: 67.8 ng/mL
- inhibition in vivo at 25 mg/kg [10]: 81%
- MTD [11]: ≤ 200 mg/kg
